Target: BCL2 (Homo sapiens (Human), UniProt P10415)
Assay: Molecular level activity test of anti-apoptotic protein BCL2 (HTRF, binding to Bim peptide)
Settings: HTRF, binding of BCL2 to Bim peptide; read-out: BCL2 nM (inhibitory activity, IC50)
Summary of the method: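 Step one: compound, supplied in 2% DMSO, is mixed with His-tagged BCL2 and biotinylated Bim peptide and reacted for 1 h. Step two: anti-His and streptavidin-XL665 reagents in detection buffer are added. Step three: after a 4 h room-temperature incubation, time-resolved fluorescence is measured.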

Chain of BCL2 (P10415 whole entry): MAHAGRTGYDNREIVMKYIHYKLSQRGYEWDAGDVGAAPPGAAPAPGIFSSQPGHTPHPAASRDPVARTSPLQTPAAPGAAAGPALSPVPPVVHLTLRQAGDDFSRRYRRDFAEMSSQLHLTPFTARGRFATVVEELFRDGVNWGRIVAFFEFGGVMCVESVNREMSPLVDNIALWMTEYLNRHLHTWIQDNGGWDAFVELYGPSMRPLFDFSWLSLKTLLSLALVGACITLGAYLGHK

IC50, < 10 nM:
CC(C)c1ccccc1[C@@H]1CN(Cc2ccc(N(C)C)cc2)CCN1C1CC2(CCN(c3cc(Oc4cnc5[nH]ccc5c4)c(C(=O)NS(=O)(=O)c4ccc(NCC5(F)CCOCC5)c([N+](=O)[O-])c4)cc3F)CC2)C1 [compound 198, (R)-2-((1H-pyrrolo[2,3-b]pyrid-5-yl)oxy)-4-(2-(4-(4-(dimethylamino)benzyl)-2-(2-isopropylphenyl)piperazin-1-yl)-7-azaspiro[3.5]non-7-yl)-5-fluoro-N-((4-(((4-fluorotetrahydro-2H-pyran-4-yl)methyl)amino)-3-nitrophenyl)sulfonyl)benzamide]
COc1ccc(CN2CCN(C3CC4(C3)CN(c3ccc(C(=O)NS(=O)(=O)c5cc([N+](=O)[O-])c(NC[C@H]6CC[C@](C)(O)CC6)c6[nH]cnc56)c(Oc5cnc6[nH]ccc6c5)c3)C4)C(c3ccccc3C(C)C)C2)cc1 (stereo partly shown) [compound 040, 2-((1H-pyrrolo[2,3-b]pyrid-5-yl)oxy)-N-((7-((((1r,4r)-4-hydroxy-4-methylcyclohexyl)methyl)amino)-6-nitro-1H-benzo[d]imidazol-4-yl)sulfonyl)-4-(6-(2-(2-isopropylphenyl)-4-(4-methoxybenzyl)piperazin-1-yl)-2-azaspiro[3.3]hept-2-yl)benzamide]
CC(C)c1ccccc1[C@@H]1CN(Cc2ccncc2)CCN1C1CC2(CCN(c3cc(Oc4cnc5[nH]ccc5c4)c(C(=O)NS(=O)(=O)c4ccc(NC[C@H]5CC[C@](C)(O)CC5)c([N+](=O)[O-])c4)cc3F)CC2)C1 [compound 231, 2-((1H-pyrrolo[2,3-b]pyrid-5-yl)oxy)-5-fluoro-N-((4-((((1r, 4r)-4-hydroxy-4-methylcyclohexyl)methyl)amino)-3-nitrophenyl)sulfonyl)-4-(2-((R)-2-(2-isopropylphenyl)-4-(pyrid-4-ylmethyl)piperazin-1-yl)-7-azaspiro[3.5]non-7-yl)benzamide]
COc1ccc(CN2CCN(C3CC4(CCN(c5ccc(C(=O)NS(=O)(=O)c6cc([N+](=O)[O-])c(NC[C@H]7CC[C@](C)(O)CC7)c7c6OC(F)(F)O7)c(Oc6cnc7[nH]ccc7c6)c5)CC4)C3)[C@H](c3ccccc3C(C)C)C2)cc1 [compound 165, 2-((1H-pyrrolo[2,3-b]pyrid-5-yl)oxy)-N-((2,2-difluoro-7-((((1r, 4r)-4-hydroxy-4-methylcyclohexyl)methyl)amino)-6-nitrobenzo[d][1,3]dioxocyclopent-4-yl)sulfonyl)-4-(2-((R)-2-(2-isopropylphenyl)-4-(4-methoxybenzyl)piperazin-1-yl)-7-azaspiro[3.5]non-7-yl)benzamide]
COc1ccc(CN2CCN(C3CC4(CCN(c5cc(Oc6cnc7[nH]ccc7c6)c(C(=O)NS(=O)(=O)c6cc([N+](=O)[O-])c(NCC7(F)CCOCC7)c7ocnc67)cc5F)CC4)C3)[C@H](c3ccccc3C(C)C)C2)cn1 [compound 127, (R)-2-((1H-pyrrolo[2,3-b]pyrid-5-yl)oxy)-5-fluoro-N-((7-(((4-fluorotetrahydro-2H-pyran-4-yl)methyl)amino)-6-nitrobenzo[d]oxazol-4-yl)sulfonyl)-4-(2-(2-(2-isopropylphenyl)-4-((6-methoxypyrid-3-yl)methyl)piperazin-1-yl)-7-azaspiro[3.5]non-7-yl)benzamide]
COc1ccc(CN2CCN(C3CC4(CCN(c5cc(Oc6cnc7[nH]ccc7c6)c(C(=O)NS(=O)(=O)c6cc([N+](=O)[O-])c(NC[C@H]7COCCO7)c7c6OCO7)cn5)CC4)C3)[C@H](c3ccccc3C(C)C)C2)cc1 [compound 151, N-((7-((((S)-1,4-dioxan-2-yl)methyl)amino)-6-nitrobenzo[d][1,3]dioxocyclopent-4-yl)sulfonyl)-4-((1H-pyrrolo[2,3-b]pyrid-5-yl)ox)-6-(2-((R)-2-(2-isopropylphenyl)-4-(4-methoxybenzyl)piperazin-1-yl)-7-azaspiro[3.5]non-7-yl) nicotinamide]
CC(C)c1ccccc1[C@@H]1CCCN1C1CC2(CCN(c3cc(Oc4cnc5[nH]ccc5c4)c(C(=O)NS(=O)(=O)c4cc([N+](=O)[O-])c(NCC5(F)CCN(CC(C)(C)C)CC5)c5[nH]cnc45)cn3)CC2)C1 [compound 025, (S)-4-((1H-pyrrolo[2,3-b]pyrid-5-yl)oxy)-N-((7-(((4-fluoro-1-neopentylpiperid-4-yl)methyl)amino)-6-nitro-1H-benzo[d]imidazol-4-yl)sulfonyl)-6-(2-(2-(2-isopropylphenyl)pyrrolidin-1-yl)-7-azaspiro[3.5]non-7-yl) nicotinamide]
(S)-2-((1H-pyrrolo[2,3-b]pyrid-5-yl)oxy)-N-((7-(((4-fluoro-1-(oxocyclobut-3-yl)piperid-4-yl)methyl)amino)-6-nitro-1H-benzo[d]imidazol-4-yl)sulfonyl)-4-(2-(2-(2-isopropylphenyl)pyrrolidin-1-yl)-7-azaspiro[3.5]non-7-yl)benzamide [compound 003]
COc1ccc(CN2CCN(C3CC4(C3)CN(c3cc(Oc5cnc6[nH]ccc6c5)c(C(=O)NS(=O)(=O)c5cc([N+](=O)[O-])c(NC[C@H]6CC[C@](C)(O)CC6)c6[nH]cnc56)cc3F)C4)C(c3ccccc3C(C)C)C2)cc1 (stereo partly shown) [compound 072, 2-((1H-pyrrolo[2,3-b]pyrid-5-yl)oxy)-5-fluoro-N-((7-((((1r,4r)-4-hydroxy-4-methylcyclohexyl)methyl)amino)-6-nitro-1H-benzo[d]imidazol-4-yl)sulfonyl)-4-(6-(2-(2-isopropylphenyl)-4-(4-methoxybenzyl)piperazin-1-yl)-2-azaspiro[3.3]hept-2-yl)benzamide]
COc1ccc(CN2CCN(C3CC4(CCN(c5cc(Oc6cnc7[nH]ccc7c6)c(C(=O)NS(=O)(=O)c6ccc(NCC7(F)CCOCC7)c([N+](=O)[O-])c6)cc5F)CC4)C3)[C@@H](c3ccccc3C(C)C)C2)cc1 [compound 153, (S)-2-((1H-pyrrolo[2,3-b]pyrid-5-yl)oxy)-5-fluoro-N-((4-(((4-fluorotetrahydro-2H-pyran-4-yl)methyl)amino)-3-nitrophenyl)sulfonyl)-4-(2-(2-(2-isopropylphenyl)-4-(4-methoxybenzyl)piperazin-1-yl)-7-azaspiro[3.5]non-7-yl)benzamide]
CC(C)c1ccccc1[C@@H]1CN(Cc2ccc(C3CC3)cc2)CCN1C1CC2(CCN(c3cc(Oc4cnc5[nH]ccc5c4)c(C(=O)NS(=O)(=O)c4ccc(NC[C@H]5CC[C@](C)(O)CC5)c([N+](=O)[O-])c4)cc3F)CC2)C1 [compound 219, 2-((1H-pyrrolo[2,3-b]pyrid-5-yl)oxy)-4-(2-((R)-4-(4-cyclopropylbenzyl)-2-(2-isopropylphenyl)piperazin-1-yl)-7-azaspiro[3.5]non-7-yl)-5-fluoro-N-((4-((((1r, 4r)-4-hydroxy-4-methylcyclohexyl)methyl)amino)-3-nitrophenyl)sulfonyl)benzamide]
CC(C)c1ccccc1[C@@H]1CN(Cc2ccc(F)c(F)c2)CCN1C1CC2(CCN(c3ccc(C(=O)NS(=O)(=O)c4cc([N+](=O)[O-])c(NCC5(F)CCOCC5)c5c4OCO5)c(Oc4cnc5[nH]ccc5c4)c3)CC2)C1 [compound 168, (R)-2-((1H-pyrrolo[2,3-b]pyrid-5-yl)oxy)-4-(2-(4-(3,4-difluorobenzyl)-2-(2-isopropylphenyl)piperazin-1-yl)-7-azaspiro[3.5]non-7-yl)-N-((7-(((4-fluorotetrahydro-2H-pyran-4-yl)methyl)amino)-6-nitrobenzo[d][1,3]dioxocyclopent-4-yl)sulfonyl)benzamide]
COc1ccc(CN2CCN(C3CC4(CCN(c5cc(Oc6cnc7[nH]ccc7c6)c(C(=O)NS(=O)(=O)c6ccc(NC[C@H]7CC[C@](C)(O)CC7)c([N+](=O)[O-])c6)cc5F)CC4)C3)[C@H](c3ccccc3C(C)C)C2)c2c1OCO2 [compound 223, 2-((1H-pyrrolo[2,3-b]pyrid-5-yl)oxy)-5-fluoro-N-((4-((((1r, 4r)-4-hydroxy-4-methylcyclohexyl)methyl)amino)-3-nitrophenyl)sulfonyl)-4-(2-((R)-2-(2-isopropylphenyl)-4-((7-methoxybenzo[d][1,3]dioxycyclopent-4-yl)methyl)piperazin-1-yl)-7-azaspiro[3.5]non-7-yl)benzamide]
CC(C)c1ccccc1[C@@H]1CCCN1C1CC2(CCN(c3cc(Oc4cnc5[nH]ccc5c4)c(C(=O)NS(=O)(=O)c4cc([N+](=O)[O-])c(NCC5(F)CCOCC5)c5scnc45)cc3F)CC2)C1 [compound 104, (S)-2-((1H-pyrrolo[2,3-b]pyrid-5-yl)oxy)-5-fluoro-N-((7-(((4-fluorotetrahydro-2H-pyran-4-yl)methyl)amino)-6-nitrobenzo[d]thiazol-4-yl)sulfonyl)-4-(2-(2-(2-isopropylphenyl)pyrrolidin-1-yl)-7-azaspiro[3.5]non-7-yl)benzamide]
COc1ccc(CN2CCN(C3CC4(CCN(c5cc(Oc6cnc7[nH]ccc7c6)c(C(=O)NS(=O)(=O)c6cc([N+](=O)[O-])c(NC[C@H]7CC[C@](C)(O)CC7)c7ocnc67)cc5F)CC4)C3)[C@H](c3ccccc3C(C)C)C2)cc1 [compound 114, 2-((1H-pyrrolo[2,3-b]pyrid-5-yl)oxy)-5-fluoro-N-((7-((((1r, 4r)-4-hydroxy-4-methylcyclohexyl)methyl)amino)-6-nitrobenzo[d]oxazol-4-yl)sulfonyl)-4-(2-((R)-2-(2-isopropylphenyl)-4-(4-methoxybenzyl)piperazin-1-yl)-7-azaspiro[3.5]non-7-yl)benzamide]
COc1ccc(CN2CCN(C3CC4(CCN(c5ccc(C(=O)NS(=O)(=O)c6cc([N+](=O)[O-])c(NC[C@H]7COCCO7)c7c6OCCO7)c(Oc6cnc7[nH]ccc7c6)c5)CC4)C3)[C@H](c3ccccc3C(C)C)C2)cc1 [compound 183, N-((8-((((S)-1,4-dioxan-2-yl)methyl)amino)-7-nitro-2,3-dihydrobenzo[b][1,4]dioxan-5-yl)sulfonyl)-2-((1H-pyrrolo[2,3-b]pyrid-5-yl)oxy)-4-(2-((R)-2-(2-isopropylphenyl)-4-(4-methoxybenzyl)piperazin-1-yl)-7-azaspiro[3.5]non-7-yl)benzamide]
